Laboratory results taken from patent publication US20250195530A1, “POLQ INHIBITORS” (ASTRAZENECA AB, priority 2022, published 2025).
Like-named read-outs stand apart in the source and are kept apart here. Each block holds one molecule with its values, some of them ahead of it.

Key:
[1] = tested on: DLD-1 cells; assay: Inhibition of proliferation, DLD-1 BRCA2 wt control (Cell Titre Glo 3D); assay type: cell-based; conditions: for IC50: Homo sapiens
Summary of the method: (§1)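 DLD-1 BRCA2−/− (3,000 cells/mL) and parental DLD-1 (1,500 cells/mL) cells in phenol red-free RPMI 1640 with 10% FBS were exposed to a 10-point, three-fold compound series from 10 μM to 0.51 nM at 37 °C, 5% CO2. Medium and compound were replenished on day 6. CellTiter-Glo 3D luminescence was read on day 7 (DLD-1) or day 12 (BRCA2−/−), and IC50 was taken as 50% reduction of maximum signal.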

[2] = tested on: DLD-1 BRCA2−/− cells; assay: Homologous recombination synthetic lethal inhibition of proliferation, DLD-1 BRCA2-/- (Cell Titre Glo 3D); assay type: cell-based; conditions: for IC50: Homo sapiens
Summary of the method: as §1

[3] = DLD-1, 168 h, DLD-1 BRCA2 wt cells, 7 days, read-out: POLQ PD Prolif Lumin DLD1 mean pIC50 (converted)
[4] = DLD-1, 288 h, DLD-1 BRCA2−/− cells, 12 days, read-out: POLQ PD Prolif Lumin BRCA2 −/− mean pIC50 (converted)
[5] = DLD-1, 168 h, DLD-1 (BRCA2 wt control), 7 days, Cell Titre Glo 3D, read-out: POLQ PD Prolif Lumin DLD1 Mean pIC50 (converted)
[6] = DLD-1, 288 h, DLD-1 BRCA2−/−, 12 days, Cell Titre Glo 3D, read-out: POLQ PD Prolif Lumin BRCA2 −/− Mean pIC50 (converted)
[7] = DLD-1, DLD1 BRCA2 wt, mean, read-out: POLQ PD Prolif Lumin DLD1 mean pIC50 (converted)
[8] = DLD-1, DLD-1 BRCA2 −/−, mean, read-out: POLQ PD Prolif Lumin BRCA2 −/− mean pIC50 (converted)
[9] = DLD-1, second proliferation column (c6), DLD-1 BRCA2 wt control, read-out: POLQ PD Prolif Lumin (converted)
[10] = DLD-1, first proliferation column (c5), DLD-1 BRCA2-/-, read-out: POLQ PD Prolif Lumin (converted)

Compound: CC(C)Oc1ccc2c(c1)nc(-c1ccc(OCCC3CCCN3C)cc1Cl)n2Cc1ccccc1 (single isomer, unassigned) [Example A9, 1-benzyl-2-(2-chloro-4-(2-(1-methylpyrrolidin-2-yl)ethoxy)phenyl)-5-isopropoxy-1H-benzo[d]imidazole]
POLQ PD Prolif Lumin DLD1 mean pIC50 ([1]; DLD-1 BRCA2 wt cells, 7 days): 6.3 | POLQ PD Prolif Lumin BRCA2 −/− mean pIC50 ([2]; DLD-1 BRCA2−/− cells, 12 days): 6.7

Compound: CN1CCN(CCOc2ccc(-c3nc4c(OC5(C)CC5)ncnc4n3Cc3cccc(F)c3F)c(Cl)c2)CC1 [Example E3, 8-(2-chloro-4-(2-(4-methylpiperazin-1-yl)ethoxy)phenyl)-9-(2,3-difluorobenzyl)-6-(1-methylcyclopropoxy)-9H-purine]
IC50 [1, 3]: 3.98 µM | IC50 [2, 4]: 0.0501 µM

Compound: COc1ccc(Cl)cc1Cn1c(-c2cccc(O[C@H]3C[C@@H](C(=O)O)C3)c2Cl)nc2c(OC3(C)CC3)ncnc21 [Example 52, (1s,3s)-3-(2-chloro-3-(9-(5-chloro-2-methoxybenzyl)-6-(1-methylcyclopropoxy)-9H-purin-8-yl)phenoxy)cyclobutane-1-carboxylic acid]
IC50 [1, 5]: > 10 µM | IC50 [2, 6]: 0.0126 µM

Compound: CC1(Oc2ncnc3c2nc(-c2ccc(OC[C@H]4CCN4)cc2Cl)n3Cc2ccccc2)CC1 [Example D16, (R)-8-(4-(azetidin-2-ylmethoxy)-2-chlorophenyl)-9-benzyl-6-(1-methylcyclopropoxy)-9H-purine]
IC50 [1, 3]: 3.98 µM | IC50 [2, 4]: 0.158 µM

Compound: CN1CCN(CCOc2ccc(-c3nc4c(OC5(C)CC5)ncnc4n3Cc3ccccc3)c(CO)c2)CC1 [Example H10, (2-(9-benzyl-6-(1-methylcyclopropoxy)-9H-purin-8-yl)-5-(2-(4-methylpiperazin-1-yl)ethoxy)phenyl)methanol]
IC50 [1, 3]: > 10 µM | IC50 [2, 4]: 0.794 µM

Compound: CC1(Oc2ncnc3c2nc(-c2ccc(OCC(N)=O)cc2Cl)n3Cc2ccccc2)CC1 [Example D27, 2-(4-(9-benzyl-6-(1-methylcyclopropoxy)-9H-purin-8-yl)-3-chlorophenoxy)acetamide]
IC50 [1, 3]: > 10 µM | IC50 [2, 4]: 0.1 µM

Compound: Cc1cc(N2CC(N(C)C)C2)ncc1-c1nc2c(OC3(C)CC3)ncnc2n1Cc1ccccc1 [Example F2, 1-(5-(9-benzyl-6-(1-methylcyclopropoxy)-9H-purin-8-yl)-4-methylpyridin-2-yl)-N,N-dimethylazetidin-3-amine]
IC50 [1, 3]: > 10 µM | IC50 [2, 4]: 0.316 µM

Compound: Cc1ccnc(Cn2c(-c3ccc(OCCN4CC(O)C4)cc3Cl)nc3c(OC4(C)CC4)ncnc32)c1 [Example 26, 1-(2-(3-Chloro-4-(6-(1-methylcyclopropoxy)-9-((4-methylpyridin-2-yl)methyl)-9H-purin-8-yl)phenoxy)ethyl)azetidin-3-ol]
IC50 [1, 3]: > 10 µM | IC50 [2, 4]: 0.501 µM

Compound: CC1(Oc2ncnc3c2nc(-c2ccc(OCC(=O)NCCO)cc2Cl)n3Cc2ccccc2)CC1 [Example D28, 2-(4-(9-benzyl-6-(1-methylcyclopropoxy)-9H-purin-8-yl)-3-chlorophenoxy)-N-(2-hydroxyethyl)acetamide]
IC50 [1, 3]: > 10 µM | IC50 [2, 4]: 0.0794 µM

Compound: CC(=O)NCCCOc1ccc(-c2nc3cc(OC(C)C)ccc3n2Cc2ccccc2)c(Cl)c1 [Example A3, N-(3-(4-(1-benzyl-5-isopropoxy-1H-benzo[d]imidazol-2-yl)-3-chlorophenoxy)propyl)acetamide]
IC50 [1, 3]: 5.01 µM | IC50 [2, 4]: 0.501 µM

Compound: CC(=O)N1CC(Oc2ccc(-c3nc4c(OC5(C)CC5)ncnc4n3Cc3cc(C)ccn3)c(Cl)c2)C1 [Example 40, 1-(3-(3-Chloro-4-(6-(1-methylcyclopropoxy)-9-((4-methylpyridin-2-yl)methyl)-9H-purin-8-yl)phenoxy)azetidin-1-yl)ethan-1-one]
IC50 [1, 5]: > 10 µM | IC50 [2, 6]: 0.158 µM

The next lines start with results.

IC50 ([1]; DLD-1, DLD-1 BRCA2 wt control proliferation, column head only partly shown, read-out: POLQ PD Prolif Lumin (converted)): > 10 µM
Compound: CC(CCOc1ccc(-c2nc3c(OC4(C)CC4)ncnc3n2Cc2ccccc2Br)c(Cl)c1)C(=O)O (racemic) [Example T278, 4-(4-(9-(2-bromobenzyl)-6-(1-methylcyclopropoxy)-9H-purin-8-yl)-3-chlorophenoxy)-2-methylbutanoic acid]
IC50 ([2]; DLD-1, DLD-1 BRCA2-/- proliferation, column head only partly shown, read-out: POLQ PD Prolif Lumin (converted)): 0.316 µM

IC50 ([1]; DLD-1, second proliferation column (c6), taken as DLD-1 BRCA2 wt, read-out: POLQ PD Prolif Lumin (converted)): > 10 µM
Compound: Cc1ccnc(Cn2c(-c3ccc(OCCC(C)(C)O)cc3Cl)nc3c(OC4(C)CC4)ncnc32)c1 [Example T382, 4-(3-chloro-4-(6-(1-methylcyclopropoxy)-9-((4-methylpyridin-2-yl)methyl)-9H-purin-8-yl)phenoxy)-2-methylbutan-2-ol]
IC50 ([2]; DLD-1, first proliferation column (c5), taken as DLD-1 BRCA2-/-, read-out: POLQ PD Prolif Lumin (converted)): 0.1 µM

IC50 [1, 7]: > 10 µM
Compound: COc1ccc(Cl)cc1Cn1c(-c2cccc(CCC(=O)O)c2Cl)nc2c(OC3(C)CC3)ncnc21 [Example U64, 3-(2-chloro-3-(9-(5-chloro-2-methoxybenzyl)-6-(1-methylcyclopropoxy)-9H-purin-8-yl)phenyl)propanoic acid]
IC50 [2, 8]: 0.1 µM

IC50 ([1]; DLD-1, DLD1 BRCA2 wt cells, mean, read-out: POLQ PD Prolif Lumin DLD1 mean PIC50 (converted)): > 10 µM
Compound: CC1(Oc2ncnc3c2nc(-c2ccc(OCCc4nn[nH]n4)cc2Cl)n3Cc2cccc(Cl)c2)CC1 [Example T92, 8-(4-(2-(2H-tetrazol-5-yl)ethoxy)-2-chlorophenyl)-9-(3-chlorobenzyl)-6-(1-methylcyclopropoxy)-9H-purine]
IC50 ([2]; DLD-1, DLD-1 BRCA2 −/− cells, mean, read-out: POLQ PD Prolif Lumin BRCA2 −/− mean pIC50 (converted)): 2 µM

IC50 [1, 9]: > 6.31 µM
Compound: Cc1cc(Cl)cc(Cn2c(-c3ccc(OCCN4CCNCC4)cc3Cl)nc3c(OC4(C)CC4)ncnc32)n1 [Example T527, 8-(2-chloro-4-(2-(piperazin-1-yl)ethoxy)phenyl)-9-((4-chloro-6-methylpyridin-2-yl)methyl)-6-(1-methylcyclopropoxy)-9H-purine]
IC50 [2, 10]: 0.398 µM

IC50 [1, 7]: > 6.31 µM
Compound: C[C@@H](CCOc1ccc(-c2nc3c(OC4(C)CC4)ncnc3n2Cc2cccc(C#N)c2)c(Cl)c1)C(=O)O [Example U8, (S)-4-(3-chloro-4-(9-(3-cyanobenzyl)-6-(1-methylcyclopropoxy)-9H-purin-8-yl)phenoxy)-2-methylbutanoic acid]
IC50 [2, 8]: 0.398 µM

IC50 [1, 9]: > 7.94 µM
Compound: CC1(Oc2ncnc3c2nc(-c2ccc(OCCCN4CC[C@@H](O)C4)cc2Cl)n3Cc2cc(Cl)ccn2)CC1 [Example T502, (R)-1-(3-(3-chloro-4-(9-((4-chloropyridin-2-yl)methyl)-6-(1-methylcyclopropoxy)-9H-purin-8-yl)phenoxy)propyl)pyrrolidin-3-ol]
IC50 [2, 10]: 0.126 µM

IC50 [1, 9]: > 10 µM
Compound: Cc1cnc(Cn2c(-c3cccc(OCCCN(C)C)c3Cl)nc3c(OC4(C)CC4)ncnc32)s1 [Example T149, 3-(2-chloro-3-(6-(1-methylcyclopropoxy)-9-((5-methylthiazol-2-yl)methyl)-9H-purin-8-yl)phenoxy)-N,N-dimethylpropan-1-amine]
IC50 [2, 10]: 0.316 µM

IC50 [1, 9]: 10 µM
Compound: CC1(Oc2ncnc3c2nc(-c2ccc(OCCCC(C)(C)C(=O)O)cc2Cl)n3Cc2cccc(Cl)c2)CC1 [Example T563, 5-(3-chloro-4-(9-(3-chlorobenzyl)-6-(1-methylcyclopropoxy)-9H-purin-8-yl)phenoxy)-2,2-dimethylpentanoic acid]
IC50 [2, 10]: 0.2 µM

IC50 [1, 9]: > 10 µM
Compound: Cc1ccnc(Cn2c(-c3ccc(C(=O)N(C)C)cc3Cl)nc3c(OC4(C)CC4)ncnc32)c1 [Example T112, 3-chloro-N,N-dimethyl-4-(6-(1-methylcyclopropoxy)-9-((4-methylpyridin-2-yl)methyl)-9H-purin-8-yl)benzamide]
IC50 [2, 10]: 1.58 µM

IC50 [1, 3]: 5.01 µM
Compound: CC1(Oc2ncnc3c2nc(-c2ccc(OCCN4CC5(CC(O)C5)C4)cc2Cl)n3Cc2ccccc2)CC1 [Example H16, 2-(2-(4-(9-benzyl-6-(1-methylcyclopropoxy)-9H-purin-8-yl)-3-chlorophenoxy)ethyl)-2-azaspiro[3.3]heptan-6-ol]
IC50 [2, 4]: 0.0501 µM
